pKi: −log10 of the molar value.
Experiments:
Rattus norvegicus [1] = test: Percent inhibition of Urea nitrogen by the compound given as ratio of UN value in treated to vehicle treated ones after intraperitoneal administration of 10 mg/kg of compound to rats(vehicle 138.4+/-9.8); assay type: functional; settings: ip
Adenosine receptor A1 = biological target: T1, Adenosine receptor A1 (Cavia porcellus, UniProt P47745)
T1 sequence (P47745 whole entry): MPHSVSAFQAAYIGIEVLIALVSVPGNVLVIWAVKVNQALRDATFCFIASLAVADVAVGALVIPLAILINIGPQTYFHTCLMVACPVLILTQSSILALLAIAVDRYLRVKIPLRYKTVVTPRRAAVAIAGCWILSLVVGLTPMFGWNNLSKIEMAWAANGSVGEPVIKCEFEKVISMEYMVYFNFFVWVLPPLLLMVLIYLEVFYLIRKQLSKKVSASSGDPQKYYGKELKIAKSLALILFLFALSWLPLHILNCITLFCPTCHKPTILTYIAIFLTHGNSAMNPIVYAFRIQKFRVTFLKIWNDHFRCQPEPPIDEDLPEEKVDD
Description: Binding affinity against adenosine A1 receptor in guinea pig forebrain membranes using N6-[3H]cyclohexyladenosine as radioligand

Rattus norvegicus [2] = test: Serum creatinine concentration measured after intraperitoneal administration of 10 mg/kg of compound to rats(vehicle 2.89+/-0.18); assay type: functional
Rattus norvegicus [3] = test: Serum creatinine concentration measured after intraperitoneal administration of 1 mg/kg of compound to rats(vehicle 2.89+/-0.42); assay type: functional
Adenosine A2 receptor = Adenosine A2 receptor (Rattus norvegicus, UniProt P29276+P30543)
Rattus norvegicus [4] = test: Percent inhibition of serum creatinine by the compound given as ratio of Cr value in treated to vehicle treated ones after intraperitoneal administration of 1 mg/kg of compound to rats(vehicle 2.89+/-0.42); assay type: functional; settings: ip
Rattus norvegicus [5] = test: Urea nitrogen concentration measured after intraperitoneal administration of 1 mg/kg of compound to rats(vehicle 107.7+/-15.2); assay type: functional
Rattus norvegicus [6] = test: Oral diuretic activity was measured after oral administration of 25 mg/kg to rats(control volume is 0.87+/-0.04); assay type: functional, Urine
Rattus norvegicus [7] = test: Ratio of sodium ion/potassium ion concentration in treated rats to that in control rats, at a peroral dose of 25 mg/Kg; assay type: functional
Rattus norvegicus [8] = test: Ratio of urinary excretion value (urinary volume) in treated rats to that in control rats, at a peroral dose of 25 mg/Kg; assay type: functional, Urine
Rattus norvegicus [9] = test: Ratio of urinary excretion value (urinary volume) in treated rats to that in control rats, at a peroral dose of 6.25 mg/Kg; assay type: functional, Urine
Rattus norvegicus [10] = test: Percent inhibition of serum creatinine by the compound given as ratio of Cr value in treated to vehicle treated ones after intraperitoneal administration of 10 mg/kg of compound to rats(vehicle 2.89+/-0.18); assay type: functional; settings: ip
Rattus norvegicus [11] = test: Effect on urinary excretion potassium and sodium after oral administration of 25 mg/kg to rats(potassium and sodium excretion in control rat is 0.134+/-0.017); assay type: functional, Urine
Rattus norvegicus [12] = test: Ratio of urinary excretion value (Na+ concentration) in treated rats to that in control rats, at a peroral dose of 6.25 mg/Kg; assay type: functional, Urine
Rattus norvegicus [13] = test: Percent inhibition of Urea nitrogen by the compound given as ratio of UN value in treated to vehicle treated ones after intraperitoneal administration of 1 mg/kg of compound to rats(vehicle 107.7+/-15.2); assay type: functional; settings: ip
Rattus norvegicus [14] = test: Ratio of urinary excretion value (Na+ concentration) in treated rats to that in control rats, at a peroral dose of 25 mg/Kg; assay type: functional, Urine
Rattus norvegicus [15] = test: Urea nitrogen concentration measured after intraperitoneal administration of 10 mg/kg of compound to rats(vehicle 138.4+/-9.8); assay type: functional
Rattus norvegicus [16] = test: Percent inhibition of Urea nitrogen by the compound given as ratio of UN value in treated to vehicle treated ones after intraperitoneal administration of 0.1 mg/kg of compound to rats(vehicle 141.3+/-8.3); assay type: functional; settings: ip
Rattus norvegicus [17] = test: Urea nitrogen concentration measured after intraperitoneal administration of 0.1 mg/kg of compound to rats(vehicle 141.3+/-8.3); assay type: functional
Rattus norvegicus [18] = test: Percent inhibition of serum creatinine by the compound given as ratio of Cr value in treated to vehicle treated ones after intraperitoneal administration of 0.01 mg/kg of compound to rats(vehicle 4.50+/-0.24); assay type: functional; settings: ip
Rattus norvegicus [19] = test: Percent inhibition of serum creatinine by the compound given as ratio of Cr value in treated to vehicle treated ones after intraperitoneal administration of 0.1 mg/kg of compound to rats(vehicle 3.92+/-0.23); assay type: functional; settings: ip
Rattus norvegicus [20] = test: Ratio of urinary excretion value (urinary volume) in treated rats to that in control rats, at a peroral dose of 0.4 mg/Kg; assay type: functional, Urine
Rattus norvegicus [21] = test: Ratio of sodium ion/potassium ion concentration in treated rats to that in control rats, at a peroral dose of 1.6 mg/Kg; assay type: functional
Rattus norvegicus [22] = test: Serum creatinine concentration measured after intraperitoneal administration of 0.1 mg/kg of compound to rats(vehicle 3.92+/-0.23); assay type: functional
Rattus norvegicus [23] = test: Serum creatinine concentration measured after intraperitoneal administration of 1 mg/kg of compound to rats(vehicle 4.82+/-0.17); assay type: functional
Rattus norvegicus [24] = test: Ratio of sodium ion/potassium ion concentration in treated rats to that in control rats, at a peroral dose of 0.4 mg/Kg; assay type: functional
Rattus norvegicus [25] = test: Effect on urinary excretion potassium and sodium after oral administration of 1.6 mg/kg to rats(potassium and sodium excretion in control rat is 0.169+/-0.012); assay type: functional, Urine
Rattus norvegicus [26] = test: Serum creatinine concentration measured after intraperitoneal administration of 0.01 mg/kg of compound to rats(vehicle 4.50+/-0.24); assay type: functional
Rattus norvegicus [27] = test: Percent inhibition of Urea nitrogen by the compound given as ratio of UN value in treated to vehicle treated ones after intraperitoneal administration of 1 mg/kg of compound to rats(vehicle 151.5+/-7.4); assay type: functional; settings: ip
Rattus norvegicus [28] = test: Ratio of urinary excretion value (urinary volume) in treated rats to that in control rats, at a peroral dose of 1.6 mg/Kg; assay type: functional, Urine
Rattus norvegicus [29] = test: Urea nitrogen concentration measured after intraperitoneal administration of 0.01 mg/kg of compound to rats(vehicle 130.6+/-4.12); assay type: functional
Rattus norvegicus [30] = test: Oral diuretic activity was measured after oral administration of 1.6 mg/kg to rats(control volume is 0.97+/-0.05); assay type: functional, Urine
Rattus norvegicus [31] = test: Ratio of urinary excretion value (Na+ concentration) in treated rats to that in control rats, at a peroral dose of 1.6 mg/Kg; assay type: functional, Urine
Rattus norvegicus [32] = test: Percent inhibition of Urea nitrogen by the compound given as ratio of UN value in treated to vehicle treated ones after intraperitoneal administration of 0.01 mg/kg of compound to rats(vehicle 130.6+/-4.12); assay type: functional; settings: ip
Rattus norvegicus [33] = test: Urea nitrogen concentration measured after intraperitoneal administration of 1 mg/kg of compound to rats(vehicle 151.5+/-7.4); assay type: functional
Rattus norvegicus [34] = test: Ratio of urinary excretion value (Na+ concentration) in treated rats to that in control rats, at a peroral dose of 0.4 mg/Kg; assay type: functional, Urine
Rattus norvegicus [35] = test: Percent inhibition of serum creatinine by the compound given as ratio of Cr value in treated to vehicle treated ones after intraperitoneal administration of 1 mg/kg of compound to rats(vehicle 4.82+/-0.17); assay type: functional; settings: ip
Rattus norvegicus [36] = test: Oral diuretic activity was measured after oral administration of 0.4 mg/kg to rats(control volume is 1.72+/-0.31); assay type: functional, Urine
Rattus norvegicus [37] = test: Effect on urinary excretion potassium and sodium after oral administration of 0.4 mg/kg to rats(potassium and sodium excretion in control rat is 0.267+/-0.044); assay type: functional, Urine

FC(F)(F)c1nnc2c(NC3CCCC3)nc3ccccc3n12
inhibition in vivo at 10 mg/kg (Rattus norvegicus [1]): 62% | pKi (Adenosine receptor A1): 7.12 | Cr (Rattus norvegicus [2]): 1.52 mg/dL | Cr (Rattus norvegicus [3]): 2.6 mg/dL | Ki (Adenosine A2 receptor): 1300 nM | inhibition in vivo at 1 mg/kg (Rattus norvegicus [4]): 10% | UN (Rattus norvegicus [5]): 92 mg/dL | Urine volume (Rattus norvegicus [6]): 1.86 ml 6hr-1 100g-1 | Na+/K+ (Rattus norvegicus [7]): 1.71 | T/C (Rattus norvegicus [8]): 2.13 | T/C (Rattus norvegicus [9]): 0.92 | inhibition in vivo at 10 mg/kg (Rattus norvegicus [10]): 48% | Na (Rattus norvegicus [11]): 0.314 m equiv 6hr-1 100g-1 | T/C (Rattus norvegicus [12]): 1.1 | inhibition in vivo at 1 mg/kg (Rattus norvegicus [13]): 15% | T/C (Rattus norvegicus [14]): 1.55 | UN (Rattus norvegicus [15]): 58.9 mg/dL

CC(C)Cn1c(=O)n(C)c(=O)c2[nH]c(C34CC5CC(CC3C5)C4)nc21
inhibition in vivo at 0.1 mg/kg (Rattus norvegicus [16]): 50% | UN (Rattus norvegicus [17]): 70.9 mg/dL | pKi (Adenosine A2 receptor): 6.07 | inhibition in vivo at 0.01 mg/kg (Rattus norvegicus [18]): 25% | inhibition in vivo at 0.1 mg/kg (Rattus norvegicus [19]): 48% | T/C (Rattus norvegicus [20]): 1.4 | Na+/K+ (Rattus norvegicus [21]): 1.73 | Cr (Rattus norvegicus [22]): 2.04 mg/dL | Cr (Rattus norvegicus [23]): 2.76 mg/dL | Na+/K+ (Rattus norvegicus [24]): 1.37 | Na (Rattus norvegicus [25]): 0.409 m equiv 6hr-1 100g-1 | Cr (Rattus norvegicus [26]): 3.38 mg/dL | inhibition in vivo at 1 mg/kg (Rattus norvegicus [27]): 51% | T/C (Rattus norvegicus [28]): 2.51 | UN (Rattus norvegicus [29]): 115.5 mg/dL | Urine volume (Rattus norvegicus [30]): 2.43 ml 6hr-1 100g-1 | T/C (Rattus norvegicus [31]): 2.43 | inhibition in vivo at 0.01 mg/kg (Rattus norvegicus [32]): 12% | UN (Rattus norvegicus [33]): 74 mg/dL | T/C (Rattus norvegicus [34]): 1.38 | inhibition in vivo at 1 mg/kg (Rattus norvegicus [35]): 42% | Urine volume (Rattus norvegicus [36]): 2.41 ml 6hr-1 100g-1 | Na (Rattus norvegicus [37]): 0.367 m equiv 6hr-1 100g-1

From ChEMBL document CHEMBL1125524, “Adenosine A1 antagonists. 2. Structure-activity relationships on diuretic activities and protective effects against acute renal failure” (J Med Chem, 1992)
